In ChEMBL document CHEMBL1201862, “PubChem BioAssay data set” (2004):
“And” between values parts separate entries of the source, which are not always exact repeats. Equal entries are not always repeated.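 Values below derive from 48-hour exposures of cells grown in 96-well plates, with endpoints linearly interpolated between the two concentrations bracketing the appropriate inhibition level. At the GI50, growth is halved.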 The source made the active and inactive calls. Rule as the data show it: active = GI50 up to about 1.1 µM and inactive = higher. Square brackets hold non-standard residues; d marks the D form. Peptide text beside a SMILES is read from it. * marks the point of attachment. Phe(4-NO2) = N[CH](Cc1ccc([N+](=O)[O-])cc1)C(=O)O; Cbz = O=C(OCc1ccccc1)*

Tests used:
Assay in all cases: NCI anticancer screen, dose series, 48 h
[1] = tested on: HOP-62
[2] = tested on: SNB-75
[3] = tested on: UO-31
[4] = tested on: UACC-62
[5] = tested on: IGROV-1
[6] = tested on: EKVX
[7] = tested on: NCI-H522
[8] = tested on: OVCAR-8
[9] = tested on: SF-268
[10] = tested on: SK-MEL-2
[11] = tested on: A549
[12] = tested on: NCI-H226
[13] = tested on: COLO 205
[14] = tested on: SK-OV-3
[15] = tested on: CAKI-1
[16] = tested on: LOX IMVI
[17] = tested on: ACHN
[18] = tested on: HT-29
[19] = tested on: HL-60
[20] = tested on: SW-620

Row | Compound | GI50 [1] | GI50 [2] | GI50 [3] | GI50 [4] | GI50 [5] | GI50 [6] | GI50 [7] | GI50 [8] | GI50 [9] | GI50 [10] | GI50 [11] | GI50 [12] | GI50 [13] | GI50 [14] | GI50 [15] | GI50 [16] | GI50 [17] | GI50 [18] | GI50 [19] | GI50 [20]
1 | CON(C)c1nc(N(C)OC)nc(N(C)OC)n1 | > 10 µM (inactive) | > 10 µM (inactive) | > 10 µM (inactive) | > 10 µM (inactive) | > 10 µM (inactive) | > 10 µM (inactive) | > 10 µM (inactive) | > 10 µM (inactive) | > 10 µM (inactive) | > 10 µM (inactive) | > 10 µM (inactive) | > 10 µM (inactive) | > 10 µM (inactive) | > 10 µM (inactive) | > 10 µM (inactive) | > 10 µM (inactive) | > 10 µM (inactive) | > 10 µM (inactive) | > 10 µM (inactive) | > 10 µM (inactive)
2 | COC(=O)C(C(=O)C(=O)Nc1nnc(S)[nH]1)c1csc(-n2nc(-c3ccccc3)cc2-c2ccccc2)n1 (configuration not stated) | > 100 µM (inactive) | 3.75 µM (inactive) | 5.61 µM (inactive) | > 100 µM (inactive) | > 100 µM (inactive) | 33.3 µM (inactive) | > 100 µM (inactive) | > 100 µM (inactive) | > 100 µM (inactive) |  | > 100 µM (inactive) | > 100 µM (inactive) | > 100 µM (inactive) | > 100 µM (inactive) | > 100 µM (inactive) | > 100 µM (inactive) | > 100 µM (inactive) | 27.5 µM (inactive) | > 100 µM (inactive) | > 100 µM (inactive)
3 | N#CN=C(NCCO)NCCO | > 100 µM (inactive) | > 100 µM (inactive) | > 100 µM (inactive) | > 100 µM (inactive) | > 100 µM (inactive) | > 100 µM (inactive) | > 100 µM (inactive) | > 100 µM (inactive) | > 100 µM (inactive) | > 100 µM (inactive) | > 100 µM (inactive) | > 100 µM (inactive) | > 100 µM (inactive) | > 100 µM (inactive) | > 100 µM (inactive) | > 100 µM (inactive) | > 100 µM (inactive) | > 100 µM (inactive) | > 100 µM (inactive) | > 100 µM (inactive)
4 | O=C(N/N=C/c1cc(Br)cc(Br)c1O)c1ccccc1O | 0.832 µM (active) | 3.66 µM (inactive) | 0.695 µM (active) | 0.368 µM (active) | 0.867 µM (active) | 1.18 µM (inactive) | 0.311 µM (active) | 0.463 µM (active) | 0.469 µM (active) | 0.433 µM (active) | 1.1 µM (active) | 0.32 µM (active) | 3.34 µM (inactive) | 1.06 µM (active) | 0.8 µM (active) | 0.399 µM (active) | 0.436 µM (active) | 3.38 µM (inactive) | 0.15 µM (active) | 0.773 µM (active)
5 | O=C(NC1C=Nc2ccc([N+](=O)[O-])cc2NC1=O)c1cc(Cl)cc([N+](=O)[O-])c1 (configuration not stated) | > 100 µM (inactive) | > 100 µM (inactive) | > 100 µM (inactive) | 44.2 µM (inactive) | > 100 µM (inactive) | 94.8 µM (inactive) | 8.65 µM (inactive) | > 100 µM (inactive) | > 100 µM (inactive) | > 100 µM (inactive) | > 100 µM (inactive) | > 100 µM (inactive) | 59.3 µM (inactive) | > 100 µM (inactive) | > 100 µM (inactive) | > 100 µM (inactive) | > 100 µM (inactive) | > 100 µM (inactive) | 12.9 µM (inactive) | > 100 µM (inactive)
6 | N#Cc1c(OCCF)c2ccccc2n2c1nc1ccccc12 | 29.9 µM (inactive) | 70.6 µM (inactive) | 14.2 µM (inactive) | 48.6 µM (inactive) | 23.8 µM (inactive) | 99.1 µM (inactive) | 19.6 µM (inactive) | 42.3 µM (inactive) | 27 µM (inactive) | > 100 µM (inactive) | 31.6 µM (inactive) | 63.5 µM (inactive) | > 100 µM (inactive) | 27 µM (inactive) | 52.2 µM (inactive) | 31.3 µM (inactive) | 23.3 µM (inactive) | 64.3 µM (inactive) | 97.7 µM (inactive) | > 100 µM (inactive)
7 | Cc1cc(C)nc(NS(=O)(=O)c2ccc(NNC(=O)c3cccc4c(=O)c5ccccc5[nH]c34)cc2)n1 | 71.8 µM (inactive) | 19.5 µM (inactive) | 41.6 µM (inactive) | 71.6 µM (inactive) | 36.7 µM (inactive) | 23.1 µM (inactive) | 33.6 µM (inactive) | 83.4 µM (inactive) | 43.2 µM (inactive) | 0.0493 µM (active) | > 100 µM (inactive) | 51.1 µM (inactive) | > 100 µM (inactive) | 55.5 µM (inactive) | > 100 µM (inactive) | 36 µM (inactive) | 32.4 µM (inactive) | 66.5 µM (inactive) | 41.2 µM (inactive) | 83.8 µM (inactive)
8 | COc1nc(C#CCC(C)O)nc(OC)n1 (configuration not stated) | 4.89 µM (inactive) | 27 µM (inactive) | 18.2 µM (inactive) | 15.1 µM (inactive) | 15.7 µM (inactive) | 20 µM (inactive) | 17.7 µM (inactive) | 17.1 µM (inactive) | 21.3 µM (inactive) | 33.7 µM (inactive) | 23.3 µM (inactive) |  | 25.4 µM (inactive) | > 100 µM (inactive) | 17.6 µM (inactive) | 14.2 µM (inactive) | 17.1 µM (inactive) | 31.3 µM (inactive) | 24.3 µM (inactive) | 23.1 µM (inactive)
9 | Oc1ccc2ccccc2c1/N=N/c1ccccc1 | 33.5 µM (inactive) and > 60 µM (inactive) | > 100 µM (inactive) | > 100 µM (inactive) | > 100 µM (inactive) | > 69.2 µM (inactive) |  | > 100 µM (inactive) and > 75.3 µM (inactive) | 56.1 µM (inactive) |  | > 100 µM (inactive) | 57.5 µM (inactive) | 73.3 µM (inactive) | > 100 µM (inactive) | 53.3 µM (inactive) | > 100 µM (inactive) | > 100 µM (inactive) | 61 µM (inactive) and 60.7 µM (inactive) | 49.5 µM (inactive) and > 64.7 µM (inactive) | > 100 µM (inactive) and 73.1 µM (inactive) | > 100 µM (inactive)
10 | CCN1CCC(O)(C(C(=O)O)c2ccccc2)CC1 (configuration not stated) | > 100 µM (inactive) | > 100 µM (inactive) | > 100 µM (inactive) | > 100 µM (inactive) | > 100 µM (inactive) | > 100 µM (inactive) | > 100 µM (inactive) | > 100 µM (inactive) | > 100 µM (inactive) | > 100 µM (inactive) | > 100 µM (inactive) | > 100 µM (inactive) | > 100 µM (inactive) | > 100 µM (inactive) | > 100 µM (inactive) | > 100 µM (inactive) | > 100 µM (inactive) | > 100 µM (inactive) | > 100 µM (inactive) | > 100 µM (inactive)
11 | CCOC(=O)CCC(NC(=O)OCc1ccccc1)C(=O)NC(CCC(=O)OCC)C(=O)NC(CCC(=O)OCC)C(=O)NC(CCC(=O)OCC)C(=O)NC(CCC(=O)OCC)C(=O)NC(Cc1ccc([N+](=O)[O-])cc1)C(=O)NC(CCC(=O)OCC)C(=O)NC(CCC(=O)OCC)C(=O)NC(CCC(=O)OCC)C(=O)NC(CCC(=O)OCC)C(=O)NC(CCC(=O)OCC)C(=O)OCC (configuration not stated) (Cbz-E(OEt)E(OEt)E(OEt)E(OEt)E(OEt)[Phe(4-NO2)]E(OEt)E(OEt)E(OEt)E(OEt)E(OEt)-OEt; configuration not given here) | > 50 µM (inactive) | > 50 µM (inactive) | > 50 µM (inactive) | > 50 µM (inactive) | > 50 µM (inactive) | > 50 µM (inactive) | > 50 µM (inactive) |  | > 50 µM (inactive) | > 50 µM (inactive) | > 50 µM (inactive) | > 50 µM (inactive) | > 50 µM (inactive) | > 50 µM (inactive) |  | > 50 µM (inactive) | > 50 µM (inactive) | > 50 µM (inactive) | > 50 µM (inactive) | > 50 µM (inactive)
12 | COc1ccc(/C(Cl)=C(\C=O)c2ccc(F)cc2)cc1OC | 15.2 µM (inactive) | 3.22 µM (inactive) | 16.4 µM (inactive) | 14.5 µM (inactive) | 31.9 µM (inactive) | 5 µM (inactive) | 12.3 µM (inactive) | 21.5 µM (inactive) | 13.5 µM (inactive) | 16.4 µM (inactive) |  | 14 µM (inactive) | 19.6 µM (inactive) | 39.4 µM (inactive) | 19.1 µM (inactive) | 14.2 µM (inactive) | 16.8 µM (inactive) | 15.4 µM (inactive) | 7.16 µM (inactive) | 28.7 µM (inactive)
13 | CC1=C2C(O)C(C(C)C(=O)NC(C)C)CCC2(C)C=CC1=O (configuration not stated) | > 100 µM (inactive) | > 100 µM (inactive) | > 100 µM (inactive) | > 100 µM (inactive) | > 100 µM (inactive) | > 100 µM (inactive) | > 100 µM (inactive) | > 100 µM (inactive) | > 100 µM (inactive) | > 100 µM (inactive) | > 100 µM (inactive) | > 100 µM (inactive) | > 100 µM (inactive) | > 100 µM (inactive) | > 100 µM (inactive) | > 100 µM (inactive) |  | > 100 µM (inactive) | > 100 µM (inactive) | > 100 µM (inactive)
